We go through eleven compounds from patent US7714134B2, “Compounds and use of tetrahydropyridothiophenes” (4SC AG, priority 2004, dated 2010).

One may read the IC50 as the concentration that gives 50% inhibition.

The test system of assay [1] is RKO colon adenocarcinoma cells (RKOp27) arrested by expression of ectopic p27Kip1. Nature of the assay: Alamar Blue cell viability assay, cell cycle specific mode of action, RKO p27 induced (arrested by Ponasterone A-induced p27Kip1). The assay is classed as cell-based. Conditions: Homo sapiens, RKOp27, 72 h, cells arrested by p27Kip1 induced with 10 μM Ponasterone A, 72 hours incubation. How it is done:
To determine the cell cycle specific mode of action, subdlones of RKO colon adenocarcinoma cells (RKOp27 or RKOp21 as described by Schmidt et al. in Oncogene 19, 2423-2429; 2000) are seeded into 96 well flat bottom plates at a density of 16000 cells per well in a volume of 50 μl per well in DMEM growth medium with 10% FCS containing 10 μM Ponasterone A. 24 hours after seeding the 50 μl each of the compound dilutions in DMEM medium are added into each well of the 96 Well plate. Each compound dilution is tested as quadruplicates. Wells containing untreated control cells are filled with 50 μl DMEM medium containing 1% DMSO. The cells are then incubated with the substances for 72 hours at 37° C. in a humidified atmosphere containing 5% carbon dioxide. To determine the viability of the cells, 10 μl of an Alamar Blue solution (Biosource) are added and the fluorescence was measured at an extinction of 544 nm and an emission of 590 nm. For the calculation of the cell viability the emission value from untreated cells is set as 100% viability and the emission rates of treated cells are set in relation to the values of untreated cells. Viabilities are expressed as % values. Viability is compared of proliferating cells grown in the absence of the inducer Ponasterone A, versus viability of cells arrested by the expression of ectopic p27Kip1 induced by Ponasterone A. The data of this experimental setting are summarized in table A (2nd column).
(In general: Alamar Blue is a resazurin reagent that responds to reducing activity.)

The test system of assay [2] is RKO (RKOp27) human colon adenocarcinoma cells. As to the kind of experiment: Alamar Blue cell viability assay, anti-proliferative/cytotoxic activity, RKO p27 uninduced. It is filed as cell-based. As to conditions: RKOp27, 72 h, proliferating cells, absence of the inducer Ponasterone A, 72 hours incubation. How it is done: The anti-proliferative/cytotoxic activity of the compounds described herein, can be tested on subdlones of RKO (RKOp27) human colon adenocarcinoma cells (Schmidt et al., Oncogene 19, 2423-2429; 2000) using the Alamar Blue cell viability assay (described in O'Brien et al. Eur J Biochem 267, 5421-5426, 2000). The compounds are dissolved as 20 mM solutions in dimethylsulfoxide (DMSO) and subsequently diluted in semi-logarithmic steps. DMSO dilutions are further diluted 1:100 into Dulbecco's modified Eagle's medium (DMEM) containing 10% fetal calf serum to a final concentration twice as much as the final concentration in the test. RKO subclones are seeded into 96 well flat bottom plates at a density of 4000 cells per well in a volume of 50 µl per well. 24 hours after seeding the 50 μl each of the compound dilutions in DMEM medium are added into each well of the 96 Well plate. Each compound dilution is tested as quadruplicates. Wells containing untreated control cells are filled with 50 μl DMEM medium containing 1% DMSO. The cells are then incubated with the substances for 72 hours at 37° C. in a humidified atmosphere containing 5% carbon dioxide. To determine the viability of the cells, 10 μl of an Alamar Blue solution (Biosource) are added and the fluorescence is measured at an extinction of 544 nm and an emission of 590 nm. For the calculation of the cell viability the emission value from untreated cells is set as 100% viability and the emission rates of treated cells are set in relation to the values of untreated cells. Viabilities are expressed as % values.
The corresponding IC50 values of the compounds for anti-proliferative/cytotoxic activity are determined from the concentration-effect curves.
Representative IC50 values for anti-proliferation/cytotoxicity determined for the compounds mentioned and numbered as Examples in the examples above follow from the following table A (1st column), in which the numbers of the compound correspond to the numbers of the examples. Any or all of the compounds according to the present invention which are listed in the Table A, as well as their salts, are to be mentioned as a particular interesting subject of the present invention.

Regarding `N#Cc1c(NC(=O)c2ccccc2)sc2c1CCN(C(=O)OCc1ccccc1)C2` [Compound 61, 3-Cyano-2-[(1-phenyl-methanoyl)-amino]-4,7-dihydro-5H-thieno[2,3-c]pyridine-6-carboxylic acid benzyl ester], the figures for the IC50 in assay [1] and in assay [2] were > 60 µM and ≤ 3 µM, respectively.

Consider `N#Cc1c(NC(=O)c2ccccc2)sc2c1CCN(C(=O)OCc1ccccn1)C2` [Compound 62, 3-Cyano-2-[(1-phenyl-methanoyl)-amino]-4,7-dihydro-5H-thieno[2,3-c]pyridine-6-carboxylic acid pyridin-2-ylmethyl ester], for which the IC50 in assay [1] is > 60 µM; in assay [2], ≤ 3 µM.

`N#Cc1c(NC(=O)c2ccccc2)sc2c1CCN(C(=O)OCc1cccnc1)C2` [Compound 63, 3-Cyano-2-[(1-phenyl-methanoyl)-amino]-4,7-dihydro-5H-thieno[2,3-c]pyridine-6carboxylic acid pyridin-3-ylmethyl ester]: the IC50 in assay [1] is > 60 µM; in assay [2], ≤ 3 µM.

Turning to `CCCOC(=O)N1CCc2c(sc(NC(=O)c3ccccc3)c2C#N)C1` [Compound 64, 3-Cyano-2-[(1-phenyl-methanoyl)-amino]-4,7-dihydro-5H-thieno[2,3-c]pyridine-6-carboxylic acid propyl ester], the IC50 was > 60 µM in assay [1] and ≤ 3 µM in assay [2].

For the compound `N#Cc1c(NC(=O)c2ccccc2)sc2c1CCN(C(=O)OCCc1ccccc1)C2` [Compound 65, 3-Cyano-2-[(1-phenyl-methanoyl)-amino]-4,7-dihydro-5H-thieno[2,3-c]pyridine-6-carboxylic acid phenethyl ester], the IC50 is > 60 µM in assay [1] and ≤ 3 µM in assay [2].

Regarding `N#Cc1c(NC(=O)c2ccccc2)sc2c1CCN(C(=O)OCc1ccncc1)C2` [Compound 66, 3-Cyano-2-[(1-phenyl-methanoyl)-amino]-4,7-dihydro-5H-thieno[2,3-c]pyridine-6-carboxylic acid pyridin-4-ylmethyl ester], the IC50 in assay [1] is > 60 µM; in assay [2], ≤ 3 µM.

As for `N#Cc1c(NC(=O)c2ccccc2)sc2c1CCN(C(=O)OCCN1CCOCC1)C2` [Compound 67, 3-Cyano-2-[(1-phenyl-methanoyl)-amino]4,7-dihydro-5H-thieno[2,3-c]pyridine-6-carboxylic acid 2-morpholin-4-yl-ethyl ester], the IC50 in assay [1] is > 60 µM; in assay [2], ≤ 3 µM.

`N#Cc1c(NC(=O)c2ccccc2)sc2c1CCN(C(=O)OCCc1ccccn1)C2` [Compound 68, 3-Cyano-2-[(1-phenyl-methanoyl)-amino]-4,7-dihydro-5H-thieno[2,3-c]pyridine-6-carboxylic acid 2-pyridin-2-yl-ethyl ester]: the IC50 in assay [1] was > 60 µM; in assay [2], ≤ 3 µM.

On to `N#Cc1c(NC(=O)c2ccccc2)sc2c1CCN(C(=O)OCCCc1ccncc1)C2` [Compound 69, 3-Cyano-2-[(1-phenyl-methanoyl)-amino]-4,7-dihydro-5H-thieno[2,3-c]pyridine-6-carboxylic acid 3-pyridin-4-yl-propyl ester], for which the values for the IC50 in assay [1] and in assay [2] were > 60 µM and ≤ 3 µM, respectively.

Take `N#Cc1c(NC(=O)c2ccccc2)sc2c1CCN(C(=O)OCCCN1CCOCC1)C2` [Compound 70, 3-Cyano-2-[(1-phenyl-methanoyl)-amino]-4,7-dihydro-5H-thieno[2,3-c]pyridine-6-carboxylic acid 3-morpholin-4-yl-propyl ester]: the IC50 in assay [1] was > 60 µM; in assay [2] it was ≤ 3 µM.

On to `N#Cc1c(NC(=O)c2ccccc2)sc2c1CCN(C(=O)OCCCc1ccccn1)C2` [Compound 71, 3-Cyano-2-[(1-phenyl-methanoyl)-amino]-4,7-dihydro-5H-thieno[2,3-c]pyridine-6-carboxylic acid 3-pyridin-2-yl-propyl ester], for which the IC50 in assay [1] is > 60 µM; in assay [2] it was ≤ 3 µM.
